Test results: ChEMBL document CHEMBL3997829, “Discovery of novel substituted octahydropyrrolo[3,4-c]pyrroles as dual orexin receptor antagonists for insomnia treatment” (Bioorg Med Chem Lett, 2017)
Converted amounts (≈) assume the structure as drawn.

How the values were obtained:
Orexin receptor type 2 = target: T1, Orexin receptor type 2 (Homo sapiens, UniProt O43614); assay: Antagonist activity at human orexin 2 receptor expressed in HEK293 cells assessed as inhibition of orexin-induced calcium mobilization after 60 mins by FLIPR assay; type: functional, cell-based
T1 sequence (O43614 whole entry): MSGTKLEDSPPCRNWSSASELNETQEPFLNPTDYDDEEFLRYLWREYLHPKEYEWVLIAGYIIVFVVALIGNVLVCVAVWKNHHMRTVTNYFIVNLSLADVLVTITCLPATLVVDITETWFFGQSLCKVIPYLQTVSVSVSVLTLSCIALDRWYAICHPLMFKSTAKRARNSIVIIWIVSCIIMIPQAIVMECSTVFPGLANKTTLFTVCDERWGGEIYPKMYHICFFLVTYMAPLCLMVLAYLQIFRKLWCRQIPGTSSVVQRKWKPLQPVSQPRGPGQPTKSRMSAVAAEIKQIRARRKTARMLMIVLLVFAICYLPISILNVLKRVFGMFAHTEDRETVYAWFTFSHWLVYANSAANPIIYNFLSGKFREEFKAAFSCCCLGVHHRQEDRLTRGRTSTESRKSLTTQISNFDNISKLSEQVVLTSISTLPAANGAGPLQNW

[1] = target: T2, Orexin/Hypocretin receptor type 1 (Homo sapiens, UniProt O43613); assay: Antagonist activity at human orexin 1 receptor expressed in HEK293 cells assessed as inhibition of orexin-induced calcium mobilization after 60 mins by FLIPR assay; type: functional, cell-based
T2 sequence (O43613 whole entry): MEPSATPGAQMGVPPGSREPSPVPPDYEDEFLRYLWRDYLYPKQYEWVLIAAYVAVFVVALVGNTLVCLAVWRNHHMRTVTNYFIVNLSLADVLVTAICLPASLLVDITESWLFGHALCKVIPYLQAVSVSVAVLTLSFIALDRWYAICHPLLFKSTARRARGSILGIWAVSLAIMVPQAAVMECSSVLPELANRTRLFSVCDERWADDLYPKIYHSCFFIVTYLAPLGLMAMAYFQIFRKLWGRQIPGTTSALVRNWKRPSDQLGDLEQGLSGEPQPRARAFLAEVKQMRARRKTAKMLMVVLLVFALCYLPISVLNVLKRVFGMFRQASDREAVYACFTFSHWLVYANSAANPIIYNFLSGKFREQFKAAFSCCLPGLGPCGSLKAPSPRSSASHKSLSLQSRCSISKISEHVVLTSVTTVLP

Rattus norvegicus [2] = assay: Sleep promoting activity in Sprague-Dawley rat assessed as increase in slow wave sleep time at 90 mg/kg, po measured over 2 hrs by electroencephalogram method; type: functional
Rattus norvegicus [3] = assay: Sleep promoting activity in Sprague-Dawley rat assessed as effect on rapid eye movement sleep time at 90 mg/kg, po measured over 2 hrs by electroencephalogram method; type: functional
Rattus norvegicus [4] = assay: Sleep promoting activity in Sprague-Dawley rat assessed as decrease in active wake time at 90 mg/kg, po measured over 2 hrs by electroencephalogram method; type: functional
[5] = target: Voltage-gated inwardly rectifying potassium channel KCNH2 (Homo sapiens, UniProt Q12809); assay: Inhibition of human ERG
Sequence of Voltage-gated inwardly rectifying potassium channel KCNH2 (Q12809 whole entry): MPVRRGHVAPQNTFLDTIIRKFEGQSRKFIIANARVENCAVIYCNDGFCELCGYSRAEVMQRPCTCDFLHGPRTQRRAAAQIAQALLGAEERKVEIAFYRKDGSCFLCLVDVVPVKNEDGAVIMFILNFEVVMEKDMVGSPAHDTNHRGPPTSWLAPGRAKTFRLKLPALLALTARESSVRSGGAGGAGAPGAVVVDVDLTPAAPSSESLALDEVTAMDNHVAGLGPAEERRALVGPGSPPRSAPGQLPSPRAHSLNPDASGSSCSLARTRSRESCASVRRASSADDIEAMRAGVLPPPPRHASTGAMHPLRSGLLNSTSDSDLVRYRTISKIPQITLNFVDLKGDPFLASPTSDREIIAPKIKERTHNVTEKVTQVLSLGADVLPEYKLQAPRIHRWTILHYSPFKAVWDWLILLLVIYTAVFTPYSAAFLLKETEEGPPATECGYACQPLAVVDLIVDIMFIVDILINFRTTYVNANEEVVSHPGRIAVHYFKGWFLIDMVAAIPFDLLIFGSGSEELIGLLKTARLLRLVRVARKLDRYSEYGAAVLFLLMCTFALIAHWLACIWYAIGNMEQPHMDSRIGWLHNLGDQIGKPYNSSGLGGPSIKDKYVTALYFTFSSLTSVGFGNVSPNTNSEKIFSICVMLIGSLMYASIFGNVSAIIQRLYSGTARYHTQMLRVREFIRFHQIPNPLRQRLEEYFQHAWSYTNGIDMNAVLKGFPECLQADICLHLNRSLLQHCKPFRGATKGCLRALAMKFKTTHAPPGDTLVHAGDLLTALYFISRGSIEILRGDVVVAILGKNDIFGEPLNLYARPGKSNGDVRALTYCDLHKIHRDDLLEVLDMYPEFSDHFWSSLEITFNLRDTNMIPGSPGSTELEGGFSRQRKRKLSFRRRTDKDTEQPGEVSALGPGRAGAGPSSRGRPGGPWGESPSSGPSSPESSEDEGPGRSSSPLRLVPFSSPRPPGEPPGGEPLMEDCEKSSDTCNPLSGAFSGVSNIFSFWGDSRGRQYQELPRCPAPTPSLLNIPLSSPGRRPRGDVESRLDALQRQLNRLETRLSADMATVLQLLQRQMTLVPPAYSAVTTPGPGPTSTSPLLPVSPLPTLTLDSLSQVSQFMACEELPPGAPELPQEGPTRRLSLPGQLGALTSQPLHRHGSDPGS

[6] = Thermodynamic solubility of the compound in phosphate buffer at pH 7.4 by HPLC method; type: physicochemical; details: read-out: Therm_solubility
[7] = Cmax in Sprague-Dawley rat at 15 mg/kg, po; type: ADME, organism-based; parameters: dose 15 mg/kg, route oral; details: in vivo
Rattus norvegicus [8] = assay: Sleep promoting activity in Sprague-Dawley rat assessed as increase in slow wave sleep time at 30 mg/kg, po measured over 2 hrs by electroencephalogram method; type: functional
Rattus norvegicus [9] = assay: Sleep promoting activity in Sprague-Dawley rat assessed as decrease in active wake time at 30 mg/kg, po measured over 2 hrs by electroencephalogram method; type: functional
[10] = Ratio of drug level in brain to plasma in Sprague-Dawley rat at 10 mg/kg, po at 4 hrs; type: ADME, organism-based; details: read-out: BPR
[11] = Tmax in Sprague-Dawley rat at 15 mg/kg, po; type: ADME, organism-based; details: in vivo
[12] = Plasma concentration in Sprague-Dawley rat at 10 mg/kg, po at 4 hrs; type: ADME, organism-based
Rattus norvegicus [13] = assay: Sleep promoting activity in Sprague-Dawley rat assessed as effect on rapid eye movement sleep time at 30 mg/kg, po measured over 2 hrs by electroencephalogram method; type: functional
Brain [14] = assay: Drug uptake in Sprague-Dawley rat brain at 10 mg/kg, po at 4 hrs; type: ADME, organism-based; details: in vivo
[15] = Plasma concentration in Sprague-Dawley rat at 10 mg/kg, po at 0.3 hrs; type: ADME, organism-based
Rattus norvegicus [16] = assay: Sleep promoting activity in po dosed Sprague-Dawley rat assessed as decrease in active wake time measured over 2 hrs by electroencephalogram method; type: functional, organism-based
[17] = AUC in Sprague-Dawley rat at 15 mg/kg, po; type: ADME, organism-based; details: in vivo
[18] = Clearance in Sprague-Dawley rat at 2 mg/kg, iv; type: ADME, organism-based; details: in vivo
[19] = Plasma concentration in Sprague-Dawley rat at 10 mg/kg, po at 1 hr; type: ADME, organism-based
Rattus norvegicus [20] = assay: Sleep promoting activity in po dosed Sprague-Dawley rat assessed as increase in slow wave sleep time measured over 2 hrs by electroencephalogram method; type: functional, organism-based
Brain [21] = assay: Drug uptake in Sprague-Dawley rat brain at 10 mg/kg, po at 1 hr; type: ADME, organism-based; details: in vivo
[22] = Oral bioavailability in Sprague-Dawley rat at 15 mg/kg; type: ADME, organism-based; details: in vivo
[23] = Half life in Sprague-Dawley rat at 2 mg/kg, iv; type: ADME, organism-based; details: in vivo
Brain [24] = assay: Drug uptake in Sprague-Dawley rat brain at 10 mg/kg, po at 0.3 hrs; type: ADME, organism-based; details: in vivo
[25] = Ratio of drug level in brain to plasma in Sprague-Dawley rat at 10 mg/kg, po at 1 hr; type: ADME, organism-based; details: read-out: BPR
[26] = Ratio of drug level in brain to plasma in Sprague-Dawley rat at 10 mg/kg, po at 0.5 hrs; type: ADME, organism-based; details: read-out: BPR

In the case of `Cc1ccc(-n2nccn2)c(C(=O)N2C[C@@H]3CN(c4nc(C)c(C)c(C)n4)C[C@@H]3C2)c1`, the IC50 (Orexin receptor type 2) is reported as 4850 nM and the IC50 [1] is reported as over 10000 nM.

`Cc1ccc(-n2nccn2)c(C(=O)N2CC3CN(c4nc5cc(Cl)ccc5o4)CC3(C)C2)c1` (stereo unspecified) showed an IC50 (Orexin receptor type 2) of 1090 nM and an IC50 [1] of 736 nM.

In the case of `Cc1ccc(-n2nccn2)c(C(=O)N2C[C@@H]3CN(c4nc5cc(OC(F)(F)F)ccc5o4)C[C@@H]3C2)c1`, the IC50 (Orexin receptor type 2) is reported as 4710 nM and the IC50 [1] is reported as 3920 nM.

`Cc1ccc(-n2nccn2)c(C(=O)N2C[C@@H]3CN(c4nc5cc(Cl)ccc5s4)C[C@@H]3C2)c1` showed an IC50 (Orexin receptor type 2) of 1190 nM and an IC50 [1] of 327 nM.

For `Cc1ccc(-n2nccn2)c(C(=O)N2CCN(c3nc4cc(Cl)ccc4o3)CC[C@H]2C)c1` [SUVOREXANT], the Time (Rattus norvegicus [2]) was 33.5 min, the Time (Rattus norvegicus [3]) was 13.6 min and the Time (Rattus norvegicus [4]) was 46.9 min.

`Cc1ccc(-n2nccn2)c(C(=O)N2C[C@@]3(F)CN(c4nc5cc(Cl)ccc5o4)C[C@@]3(F)C2)c1` gave an IC50 (Orexin receptor type 2) of 639 nM, an IC50 [5] of over 30 µM and an IC50 [1] of 759 nM.

Compound `O=C(c1ccccc1-n1nccn1)N1C[C@@H]2CN(c3nc4cc(Cl)ccc4o3)C[C@@H]2C1` has an IC50 (Orexin receptor type 2) of 238 nM and an IC50 [1] of 489 nM.

In the case of `Cc1ccc(-n2nccn2)c(C(=O)N2C[C@@]3(C)CN(c4nc5cc(Cl)ccc5o4)C[C@@]3(C)C2)c1`, the IC50 (Orexin receptor type 2) is reported as 5990 nM and the IC50 [1] is reported as 1890 nM.

`O=C(c1cc(C(F)(F)F)ccc1-n1nccn1)N1C[C@@H]2CN(c3nc4cc(Cl)ccc4o3)C[C@@H]2C1` showed an IC50 (Orexin receptor type 2) of 1040 nM and an IC50 [1] of 5020 nM.

Work on `Cc1ccc(-n2nccn2)c(C(=O)N2C[C@@H]3CN(c4nc(-c5cccc(Cl)c5)co4)C[C@@H]3C2)c1` yielded an IC50 (Orexin receptor type 2) of 2790 nM and an IC50 [1] of 1010 nM.

`Cc1ccc(-n2nccn2)c(C(=O)N2CC3CCCN(c4nc5cc(Cl)ccc5o4)C3C2)c1` (stereo unspecified) gave an IC50 (Orexin receptor type 2) of over 10000 nM and an IC50 [1] of over 10000 nM.

With `COc1ccc(-n2nccn2)c(C(=O)N2C[C@@H]3CN(c4nc5cc(Cl)ccc5o4)C[C@@H]3C2)c1` the IC50 (Orexin receptor type 2) was 387 nM and the IC50 [1] was 517 nM.

`Cc1ccc(-n2nccn2)c(C(=O)N2C[C@@H]3CN(c4nc5ccccc5o4)C[C@@H]3C2)c1` gave a solubility thermodynamic [6] of 41 µM (≈ 17 µg/mL), a Cmax [7] of 10.6 µM and a Time (Rattus norvegicus [8]) of 25.9 min. The IC50 (Orexin receptor type 2) was 178 nM, the IC50 [1] was 303 nM and the Time (Rattus norvegicus [9]) was 25.7 min. It also gave a Kp at 4 h [10] of 0.06, a Tmax [11] of 15 min and a Time (Rattus norvegicus [2]) of 36.9 min. For the same compound, the concentration at 4 h [12] was 341 nM, the Time (Rattus norvegicus [13]) was -0.1 min and the Drug uptake (Brain [14]) was 22 nmol/kg. The concentration at 0.3 h [15] was 8.79 µM, the Activity (Rattus norvegicus [16]) was “Dose-dependent effect” and the Time (Rattus norvegicus [3]) was 4.3 min. The AUC [17] was 20.3 µM·h, the clearance [18] was 10 mL/min/kg and the concentration at 1 h [19] was 3.47 µM. The Activity (Rattus norvegicus [20]) was “Dose-dependent effect”, the Drug uptake (Brain [21]) was 429 nmol/kg and the bioavailability [22] was 23%. It also gave a half-life [23] of 114 min, a Time (Rattus norvegicus [4]) of 41.1 min and a Drug uptake (Brain [24]) of 1134 nmol/kg. The Kp at 1 h [25] was 0.12 and the Kp at 0.5 h [26] was 0.13.

With `Cc1ccc(-n2nccn2)c(C(=O)N2CCCC3CN(c4nc5cc(Cl)ccc5o4)CC32)c1` (stereo unspecified) the IC50 (Orexin receptor type 2) was over 10000 nM and the IC50 [1] was over 10000 nM.

For `Cc1ccc(-n2nccn2)c(C(=O)N2C[C@@H]3CN(c4nc5cc(C)ccc5o4)C[C@@H]3C2)c1`, the IC50 (Orexin receptor type 2) was 211 nM and the IC50 [1] was 113 nM.
